Source: PMC10907465 (Inflammopharmacology, 2023)
Read-outs that look alike come from different tables or passages of the source.

What was measured:
Type in all cases: in vivo, rat
[1] = test system: MPO; details: ELISA, rats
Method: (§1) Thirty-five free pathogenic Sprague–Dawley male albino rats (100–120 g) were obtained from the Egyptian Drug Authority (EDA) animal house. Randomly, the animals were divided into seven groups, (each 5 rats) as follows: Group I: normal control group, Group II: positive control group on the 7th day only received LPS (Lipopolysaccharides) at a dose of 10 mg/kg bw. i.p. suspended in sterile saline solution 0.9% (Ijinu et al. [2022]), Group III dexamethasone positive control (5 mg/kg i.p.) (Murillo-Cuesta et al. [2023]) for 7 days followed by LPS single inflammatory dose model (10 mg/kg b. w i.p.). On the 7th day, 1 h after the last dexamethasone dose. […] All animals were anesthetized to obtain blood in heparinized capillary tubes for pro-inflammatory cytokines (TNF-α, IL-1, IL-6, and MPO) ELISA examination in addition to lung tissues for determination of antioxidant enzymes (SOD, Catalase, GSH and MDA), real-time PCR (p38.MAPK14 and CY450P2E1), western blot (NF-κB p65), histological lung tissue scoring and immunohistochemistry examination (TGF-β1).
(§2) Rat TNF-α (Catalog No: MBS2507393 96 T/48 T/24 T), IL-6 (Catalog No: MBS355410), IL-1β (Catalog no. MBS825017), MPO (Catalog No. MBS2019590) ELISA kits were obtained from MyBiosource, San Diego, USA.

[2] = test system: TNF-α; details: ELISA, rats
Method: as §1, §2

[3] = test system: SOD; assay: LPS-induced ALI in rats: pulmonary SOD; details: lung tissue
Method: as §1

[4] = test system: MDA; assay: LPS-induced ALI in rats: pulmonary MDA; details: lung tissue
Method: as §1

[5] = test system: NF-κB p65; details: western blot, lung, relative band intensity (ratio of AU to internal control), rats
Method: (§3) Thirty-five free pathogenic Sprague–Dawley male albino rats (100–120 g) were obtained from the Egyptian Drug Authority (EDA) animal house. Randomly, the animals were divided into seven groups, (each 5 rats) as follows: Group I: normal control group, Group II: positive control group on the 7th day only received LPS (Lipopolysaccharides) at a dose of 10 mg/kg bw. i.p. suspended in sterile saline solution 0.9% (Ijinu et al. [2022]), Group III dexamethasone positive control (5 mg/kg i.p.) (Murillo-Cuesta et al. [2023]) for 7 days followed by LPS single inflammatory dose model (10 mg/kg b. w i.p.). On the 7th day, 1 h after the last dexamethasone dose. […]
Samples were separated on a polyacrylamide gel; the procedure was abbreviated as SDS-PAGE, or Sodium Dodecyl Sulfate Polyacrylamide Gel Electrophoresis, a standard technique for separating proteins according to their molecular weight. […] Imaging and data analysis quantitation: The chemiluminescent substrate (Clarity TM Western ECL substrate, Bio-Rad cat# 170-5060) was applied to the blot according to the manufacturer’s recommendation.

[6] = test system: GSH; assay: LPS-induced ALI in rats: pulmonary GSH; details: lung tissue
Method: as §1

[7] = test system: IL-6; assay: LPS-induced ALI in rats: IL-6 ELISA
Method: as §1, §2

[8] = test system: IL-1β; assay: LPS-induced ALI in rats: IL-1β ELISA
Method: as §1, §2

[9] = test system: lung tissues; assay: LPS-induced ALI in rats: H&E histopathology and histological scoring of pulmonary inflammation; details: for Proportion of airspace area: airspace area / total area of one view, 400×; for Incidence of congestion / Incidence of hemorrhage / Severity of neutrophil infiltration: lung H&E
Method: as §1
Lung tissues were collected and fixed in 10% neutral buffered formaldehyde for 24 h to stabilize and fix tissue proteins. Dehydration, clearing, and paraffin infiltration and embedding were performed, and then wax blocks were sectioned by microtome into 5 µ sections and stained with Hematoxylin and Eosin Stain. Hematoxylin staining was performed according Ehrlich's Hematoxylin (Ehrlich [1886]) and eosin staining was done according to Avwioro ([2011]). Anti-Transforming Growth Factor-β (TGF-β) antibody immunohistochemistry stain (Arigo Biolaboratories, ARG 56429) was also performed, and Immuno-histochemical staining was performed according to Bajracharya et al. ([2017]). The same position of the lungs in five […] was observed through a microscope, and the histological lesion of the lung was evaluated through the incidence of congestion, inflammation, and hemorrhage, severity scoring of neutrophil infiltrates, and proportion of airspace areas. The level of severity was judged from – to +++, representing none to severe. The airspace proportion is the ratio of the airspace area and the total area of one view under 400 × magnifications (Wang et al. [2018]). According to Xue et al. ([2011]) & Ai-Li Huang et al. ([2014]): the semi-quantitative criterion for TGF-β1 staining intensity was estimated using a four-tiered scoring system: negative (−), no staining at all; weak (+), weak staining regardless of positive cell percentages or moderate staining of ≤ 30% of cells; moderate (++), moderate staining of > 30% of cells or strong staining of ≤ 50% of cells; strong (+++), strong staining of > 50% of cells. Low expression of TGF-β1 was defined as (-) or ( +), and High expression was defined as (++) or (+++).

[10] = test system: TGF-β1; details: rats
Method: as §3
Lung tissues were collected and fixed in 10% neutral buffered formaldehyde for 24 h to stabilize and fix tissue proteins. […] The same position of the lungs in five mice was observed through a microscope, and the histological lesion of the lung was evaluated through the incidence of congestion, inflammation, and hemorrhage, severity scoring of neutrophil infiltrates, and proportion of airspace areas. […]

[11] = test system: CY450P2E1; assay: LPS-induced ALI in rats: real-time PCR of CY450P2E1 gene in lung; details: lung tissue
Method: as §3
(§4) Primers were utilized in a 25- µl reaction containing 12.5 µl of the 2 × QuantiTect SYBR Green PCR Master Mix (StrateGene® MX3005P, Qiagen, Germany), 0.25 µl of Revert Aid reverse transcriptase (200 U/µL) (Thermo Fisher, Germany), 0.5 µl of each primer of 20 pmol concentration, 8.25 µl of water, and 3 µl of RNA template. […] Amplification curves and Ct values were determined by the Strata gene MX3005P software, version 3 (Agilent, California, USA). […]

[12] = test system: P38.MAPK14; assay: LPS-induced ALI in rats: real-time PCR of P38 MAPK gene in lung; details: lung tissue
Method: as §3, §4

[13] = test system: Catalase; assay: LPS-induced ALI in rats: pulmonary catalase; details: lung tissue
Method: as §1

[14] = dexamethasone 5 mg/kg i.p. 7 days + LPS 10 mg/kg i.p.

Compound: C[C@@H]1C[C@H]2[C@@H]3CCC4=CC(=O)C=C[C@]4(C)[C@@]3(F)[C@@H](O)C[C@]2(C)[C@@]1(O)C(=O)CO [Dexamethasone, dexamethasone]
- MPO [1, 14]: 45.50 ± 2.926^***b
- TNF-α [2, 14]: 91.27 ± 1.940^***b
- SOD [3, 14]: 0.8047 ± 0.041^*b
- MDA [4, 14]: 20.69 ± 2.49^***b
- Nf-ĸB [5, 14]: 3.907 ± 0.048
- GSH [6, 14]: 1.174 ± 0.1565^**b
- IL-6 [7, 14]: 58.87 ± 1.38^***b
- IL-β1 [8, 14]: 48.77 ± 1.995^***b
- Proportion of airspace area [9, 14]: 4.89%
- H&E histological examination of lung tissue (finding in words) [9, 14]: collapsed alveoli in some areas, while other areas showed emphysema
- Incidence of congestion [9, 14]: 4/8
- Incidence of hemorrhage [9, 14]: 1/8
- Severity of neutrophil infiltration [9, 14]: ++
- TGF-β1 immunohistochemical expression in lung [10, 14]: + +
- CY450P2E1 Fold change [11, 14]: 5.345 ± 0.3346^***b Fold change
- P38 MAPK Fold change [12, 14]: 3.585 ± 0.2314^***b Fold change
- Catalase [13, 14]: 0.098 ± 0.006^*b

Compound: Lipopolysaccharide [LPS]
- MPO ([1]; LPS 10 mg/kg i.p. only): 102.4 ± 3.496^***a
- TNF-α ([2]; LPS 10 mg/kg i.p. only): 157.0 ± 4.917^***a
- SOD ([3]; LPS 10 mg/kg i.p. only): 0.4713 ± 0.041^*a
- MDA ([4]; LPS 10 mg/kg i.p. only): 42.15 ± 0.800^***a
- Nf-ĸB ([5]; LPS 10 mg/kg i.p. only): 3.973 ± 0.014^***a
- GSH ([6]; LPS 10 mg/kg i.p. only): 0.4737 ± 0.038^*a
- IL-6 ([7]; LPS 10 mg/kg i.p. only): 126.1 ± 3.75^***a
- IL-β1 ([8]; LPS 10 mg/kg i.p. only): 112.2 ± 3.143^***a
- H&E histological examination of lung tissue (finding in words) ([9]; LPS 10 mg/kg i.p. only): collapsed alveoli in some areas, while other areas showed emphysema
- Proportion of airspace area ([9]; LPS 10 mg/kg i.p. only): 2.66%
- Incidence of congestion ([9]; LPS 10 mg/kg i.p. only): 5/8
- Incidence of hemorrhage ([9]; LPS 10 mg/kg i.p. only): 2/8
- Severity of neutrophil infiltration ([9]; LPS 10 mg/kg i.p. only): ++++
- TGF-β1 immunohistochemical expression in lung ([10]; LPS 10 mg/kg i.p. only): + +
- CY450P2E1 Fold change ([11]; LPS 10 mg/kg i.p. only): 12.68 ± 0.2038^***a Fold change
- P38 MAPK Fold change ([12]; LPS 10 mg/kg i.p. only): 9.682 ± 0.1741^***a Fold change
- Catalase ([13]; LPS 10 mg/kg i.p. only): 0.2153 ± 0.001^*a
